According to patent US10617734B2, “STAT3 and ERK signal pathway inhibitor comprising mogrosides and analogs thereof” (BEIJING UNIVERSITY OF AGRICULTURE, priority 2014, dated 2020):

Key:
[1] = tested on: human melanoma A875 cells; experiment: Cell apoptosis, Annexin V-FITC/PI, flow cytometer; assay type: cell-based; conditions: 10 μmol/L, 24 h
Experimental: Mogroside I E1, Mogroside II A2 and mogrol) for 24 h, cells were collected and washed twice with 200 μl of cold PBS, and then the cells were collected again; 100 μl of binding buffer was added for re-suspending the cells, and after the addition of 2 μl of Annexin V-FITC and well mixing, the resulting mixture was placed in dark at room temperature for 10 min, and then 5 μl of propidium iodide (PI) was added and then well mixed; the mixture was placed in dark at room temperature for 10 min, and detected by flow cytometer, and the results are shown in FIGS. 13-15.

leukemia cells K562 [2] = experiment: MTT colorimetric experiment, cell growth inhibition; assay type: cell-based, human; conditions: leukemia cells K562, 0.1, 1, 10, 100, 200 and 250 μmol/L, MTT after 24 h
Experimental: MTT colorimetric experiments were performed after 24 h, respectively: prior to the finish of each experiment, 15 μl of MTT solution in a concentration of 5 mg/ml was added to each well, and the culture was continued in dark at 37° C. for 4 h, then 150 μl of DMSO was added to each well and oscillating in a shaker for 10 min, and then the residue was placed in a microplate reader to detect the optical density OD) at 490 nm, and the inhibition rate was calculated according to the following formula: cell growth inhibition rate (control group OD490—test group OD490)/control group OD490×100%.

lymphoma U937 cells = experiment: Cell apoptosis, Annexin V-FITC/PI, flow cytometer; assay type: cell-based; conditions: 10 μmol/L, 24 h
Experimental: Lymphoma U937 cells, human melanoma A875 cells and leukemia cells K562 in logarithmic growth phase were selected, and after the respective culture with 0 and 10 μmol/L of the mogrosides and analogs thereof (i.e. Mogroside I E1, Mogroside II A2 and mogrol) for 24 h, cells were collected and washed twice with 200 μl of cold PBS, and then the cells were collected again; 100 μl of binding buffer was added for re-suspending the cells, and after the addition of 2 μl of Annexin V-FITC and well mixing, the resulting mixture was placed in dark at room temperature for 10 min, and then 5 μl of propidium iodide (PI) was added and then well mixed; the mixture was placed in dark at room temperature for 10 min, and detected by flow cytometer, and the results are shown in FIGS. 13-15.

[3] = tested on: phosphorylated STAT3 (P-STAT3, Tyr705); experiment: Western Blotting of phosphorylated STAT3 in U937 cells; assay type: cell-based; conditions: 10 μmol/L, 24 hours
Experimental: (§1) The inhibition of the STAT3 and ERK signal pathways achieved by Mogroside I E1, Mogroside II A2 and mogrol was detected by Western Blotting, specifically:
Group 1: histiocytic lymphoma U937 cells (1×10^6 cells/well) were inoculated into a 6-well culture plate for staying overnight, and 0 and 10 μmol/L of Mogroside I E1, Mogroside II A2 and mogrol were added respectively, and the culture was continued for 24 hours;
(§2) After the termination of the cell culture, the culture solution was removed, and the residue was washed with PBS (0.01 mol/L, pH 7.4), and then a cell lysis solution containing protease inhibitors was added at an amount of 50 μl/well, and the mixture was placed in an ice bath for lysis at 4° C. for 30 min and then centrifuged at 14000 r/min for 10 min, and then total proteins were obtained from the supernatant;
(§3) The protein concentrations were measured with bovine serum albumin (BSA) as the standard. 50 μg of the total proteins was separated by polyacrylamide gel electrophoresis with 12% […], electrophoretically transferred to a PVDF membrane (polyvinylidene fluoride membrane), and blocked for 1 h by 5% of skim milk (containing 0.1% of Tween 20), and then antibodies p-STAT3 (Tyr705) and p-Erk1/2 as well as β-actin were added, and the primary antibody was incubated at 4° C. overnight (β-actin was used as reference in loading amount); the membrane was washed for 3 times with TBS-T, 5 min each time; secondary antibody marked by horseradish peroxidase (HRP) was added for incubation at room temperature for 1 h, the membrane was washed for 3 times with a wash solution (TBS-T), 10 min each time, and then ECL was added for incubation in dark for 5 min, and subsequently, a fluorescence imaging analyzer was used for image development and scanning analysis, and the results of Western Blotting detection are shown in FIGS. 4 to 6.

[4] = tested on: phosphorylated STAT3 (P-STAT3, Tyr705); experiment: Western Blotting of phosphorylated STAT3 in A875 cells; assay type: cell-based, human; conditions: melanoma A875 cells, 10 μmol/L, 24 hours
Experimental: as §1
Group 2: human melanoma A875 cells (1×10^6 cells/well) were inoculated into a 6-well culture plate for staying overnight, and 0 and 10 μmol/L of Mogroside I E1, Mogroside II A2 and mogrol were added respectively, and the culture was continued for 24 hours;
as §2, §3

[5] = tested on: anti-apoptotic protein Bcl-2; experiment: Western Blotting of Bcl-2 in K562 cells; assay type: cell-based, human; conditions: leukemia cells K562, 10 μmol/L, 24 h
Experimental: The STAT3 and ERK signal pathways can regulate cyclins and apoptosis genes, and in order to verify the effects of […] and mogrol, the expression status of downstream genes of STAT3 and ERK was detected, wherein the influences of the three mogrosides and analogs thereof, i.e. Mogrol I E1, Mogrol II A2 and mogrol, on Bcl-2 and P21 proteins in the histiocytic lymphoma U937 cells, human melanoma A875 cells and leukemia cells K562 were determined, respectively.
The regulation of Bcl-2 and P21 proteins by mogrosides and analog thereof to the was detected by Western Blotting, specifically: histiocytic lymphoma U937 cells, human melanoma A875 cells and leukemia cells K562 (1×10^6 cells/well) were inoculated into a 6-well culture plate overnight, and 0 and 10 μmol/L of the mogrosides and analogs thereof were added respectively, and kept cultured for 24 h. […]
The protein concentration was measured with bovine serum albumin (BSA) as the standard. 50 μg of the total proteins were separated by polyacrylamide gel electrophoresis with 12% SDS, and electrophoretically transferred to a PVDF membrane (polyvinylidene fluoride membrane), and blocked for 1 h by 5% of skim milk (containing 0.1% of Tween 20), and then antibodies P21, Bcl-2 and β-actin were added, wherein the primary antibody was incubated at 4° C. overnight (β-actin was used as reference loading amount); the membrane was washed for 3 times with TBS-T, 5 min each time; secondary antibody marked by horseradish peroxidase (HRP) was added for incubation at room temperature for 1 h, the membrane was washed with rinse solution (TBS-T) for 3 times, 10 min each time, and then ECL was added for incubation in dark for 5 min, and subsequently, a fluorescence imaging analyzer was used for image development and scanning analysis.

leukemia cells K562 [6] = experiment: Cell cycle distribution, PI staining, flow cytometer; assay type: cell-based, human; conditions: leukemia cells K562, 10 μmol/L, 24 h
Source text: The influences of Mogroside I E1, Mogroside II A2 and mogrol on the cell cycle distribution of the histiocytic lymphoma U937 cells, the human melanoma A875 cells and the leukemia cells K562.
The cell cycle arrest achieved by drugs is an important approach to the inhibition of cancer cell proliferation.

For `C[C@H](CC[C@@H](O)C(C)(C)O)[C@H]1CC[C@@]2(C)[C@@H]3CC=C4[C@@H](CC[C@H](O)C4(C)C)[C@]3(C)[C@H](O)C[C@]12C` [mogrol], the cell apoptosis [1] was “induce the apoptosis”, the “cell growth inhibition rate” value (leukemia cells K562 [2]) was “inhibitory effect on the proliferation” and the cell apoptosis (lymphoma U937 cells) was “induce the apoptosis”. The “expression level of phosphorylated STAT3 (P-STAT3)” value [3] was “significantly decreased”, the “expression level of phosphorylated STAT3 (P-STAT3)” value [4] was “significantly decreased” and the “expression of anti-apoptotic protein Bcl-2” value [5] was “significantly down-regulated”. For the same molecule, the “cell cycle distribution (cell cycle arrest)” value (leukemia cells K562 [6]) was “arrested”.
